Measurements from patent publication US12421243B2, “Pharmaceutically effective compounds inhibiting selectively the myosin 2 isoforms” (PRINTNET KERESKEDELMI ÉS SZOLGÁLTATÓ KFT., priority 2018, dated 2025).

Columns and labels:
[1] = molecular target: recombinant human non-muscle myosin 2 NM2C (Homo sapiens, UniProt Q7Z406); experiment: actomyosin steady state ATPase measurement, NM2C; format: biochemical; conditions: for IC50: concentration required for semi-maximal inhibition of ATPase; for % inhibition. complete NM2C: maximum value of inhibition of ATPase activity; for inhibition at 5 µM: read-out: % inhibition at 5 μM (or 10 μM if racemate) NM2C, 5 μM (10 μM if racemate); for inhibition at 5 µM / inhibition at 50 µM: ATPase activity; for inhibition at 50 µM: read-out: % inhibition at 50 μM (or 100 μM if racemate) NM2C, 50 μM (100 μM if racemate)
Text: (§1) […]; (ii) the concentration required for semi-maximal inhibition.

[2] = molecular target: isolated smooth muscle myosin (UniProt P10587); format: biochemical, chamois; conditions: concentration required for semi-maximal inhibition of ATPase
Text: (ii) the concentration required for semi-maximal inhibition.

[3] = molecular target: isolated smooth muscle myosin (UniProt P10587); format: biochemical, chamois; conditions: for % inhibition at 5 μM (or 10 μM if racemate) Smooth: 5 μM (10 μM if racemate); for % inhibition at 5 μM (or 10 μM if racemate) Smooth / % inhibition at 50 μM (or 100 μM if racemate) Smooth: ATPase activity; for % inhibition at 50 μM (or 100 μM if racemate) Smooth: 50 μM (100 μM if racemate); for % inhibition. complete Smooth: maximum value of inhibition of ATPase activity
[4] = molecular target: recombinant human non-muscle myosin 2 NM2B (Homo sapiens, UniProt P35580); experiment: actomyosin steady state ATPase measurement, NM2B; format: biochemical
Sequence of recombinant human non-muscle myosin 2 NM2B (P35580 whole entry): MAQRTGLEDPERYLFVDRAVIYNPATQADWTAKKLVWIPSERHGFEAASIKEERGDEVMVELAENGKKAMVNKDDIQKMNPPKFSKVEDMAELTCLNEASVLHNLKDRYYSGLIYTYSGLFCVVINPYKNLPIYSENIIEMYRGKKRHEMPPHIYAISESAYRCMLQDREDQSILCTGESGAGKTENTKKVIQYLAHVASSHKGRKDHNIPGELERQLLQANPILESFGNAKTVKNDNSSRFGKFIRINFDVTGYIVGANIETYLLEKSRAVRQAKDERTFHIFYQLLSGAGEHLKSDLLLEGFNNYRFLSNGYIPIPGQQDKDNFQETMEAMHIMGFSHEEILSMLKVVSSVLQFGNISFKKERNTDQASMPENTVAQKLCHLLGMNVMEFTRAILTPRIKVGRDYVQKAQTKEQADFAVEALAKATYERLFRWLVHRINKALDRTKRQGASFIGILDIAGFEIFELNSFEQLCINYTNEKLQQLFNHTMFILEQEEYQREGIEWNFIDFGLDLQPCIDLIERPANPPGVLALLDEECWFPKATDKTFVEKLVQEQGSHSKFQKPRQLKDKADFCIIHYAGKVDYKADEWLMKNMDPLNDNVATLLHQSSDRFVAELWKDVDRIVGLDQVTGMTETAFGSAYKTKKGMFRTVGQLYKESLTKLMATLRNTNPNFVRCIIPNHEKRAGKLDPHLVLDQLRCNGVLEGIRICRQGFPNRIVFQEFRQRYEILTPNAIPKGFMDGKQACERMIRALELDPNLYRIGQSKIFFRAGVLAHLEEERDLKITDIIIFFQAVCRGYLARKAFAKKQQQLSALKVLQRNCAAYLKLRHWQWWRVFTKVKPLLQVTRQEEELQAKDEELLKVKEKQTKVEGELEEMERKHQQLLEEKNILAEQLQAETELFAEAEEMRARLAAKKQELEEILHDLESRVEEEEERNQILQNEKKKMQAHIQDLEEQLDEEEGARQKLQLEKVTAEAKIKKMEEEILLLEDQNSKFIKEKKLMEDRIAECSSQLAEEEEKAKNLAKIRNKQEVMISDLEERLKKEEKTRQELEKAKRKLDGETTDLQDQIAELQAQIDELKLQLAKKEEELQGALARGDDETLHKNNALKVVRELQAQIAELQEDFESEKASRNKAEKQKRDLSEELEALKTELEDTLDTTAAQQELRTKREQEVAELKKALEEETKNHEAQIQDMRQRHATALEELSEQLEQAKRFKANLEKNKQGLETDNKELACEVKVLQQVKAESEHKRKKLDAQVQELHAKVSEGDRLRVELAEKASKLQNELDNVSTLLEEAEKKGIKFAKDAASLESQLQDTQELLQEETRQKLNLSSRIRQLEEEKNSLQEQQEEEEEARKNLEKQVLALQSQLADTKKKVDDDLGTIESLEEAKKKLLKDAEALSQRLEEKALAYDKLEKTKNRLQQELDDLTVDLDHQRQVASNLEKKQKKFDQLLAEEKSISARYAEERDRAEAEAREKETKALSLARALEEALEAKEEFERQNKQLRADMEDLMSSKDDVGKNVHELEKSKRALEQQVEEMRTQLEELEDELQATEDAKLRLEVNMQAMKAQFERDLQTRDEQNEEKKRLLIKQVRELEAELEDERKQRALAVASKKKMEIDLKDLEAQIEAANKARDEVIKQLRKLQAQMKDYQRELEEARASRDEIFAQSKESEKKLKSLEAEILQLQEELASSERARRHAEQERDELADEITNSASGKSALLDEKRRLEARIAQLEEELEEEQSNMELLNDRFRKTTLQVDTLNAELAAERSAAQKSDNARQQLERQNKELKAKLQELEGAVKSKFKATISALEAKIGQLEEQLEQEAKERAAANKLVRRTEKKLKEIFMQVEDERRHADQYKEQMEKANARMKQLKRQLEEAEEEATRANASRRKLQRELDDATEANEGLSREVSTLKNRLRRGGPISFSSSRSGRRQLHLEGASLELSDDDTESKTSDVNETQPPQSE
Text: as §1

[5] = molecular target: recombinant Dictyostelium miozin (Dictyostelium) (Dictyostelium discoideum, UniProt P08799); experiment: actomyosin steady state ATPase measurement, Dictyostelium myosin; format: biochemical; conditions: for IC50: concentration required for semi-maximal inhibition of ATPase, read-out: IC50 (μM) Dicty; for % inhibition. complete Dicty: maximum value of inhibition of ATPase activity; for inhibition at 5 µM: read-out: % inhibition at 5 μM (or 10 μM if racemate) Dicty; for inhibition at 50 µM: read-out: % inhibition at 50 μM (or 100 μM if racemate) Dicty
Text: as §1

[6] = system: isolated rabbit skeletal muscle myosin (skeletal); experiment: actomyosin steady state ATPase measurement, skeletal muscle myosin; format: biochemical; conditions: for % inhibition at 5 μM (or 10 μM if racemate) Skeletal: 5 μM (10 μM if racemate); for % inhibition at 5 μM (or 10 μM if racemate) Skeletal / % inhibition at 50 μM (or 100 μM if racemate) Skeletal: ATPase activity; for % inhibition at 50 μM (or 100 μM if racemate) Skeletal: 50 μM (100 μM if racemate); for IC50: concentration required for semi-maximal inhibition of ATPase; for % inhibition. complete Skeletal: maximum value of inhibition of ATPase activity
Text: as §1

[7] = molecular target: recombinant human non-muscle myosin 2 NM2A (Homo sapiens, UniProt P35579); experiment: actomyosin steady state ATPase measurement, NM2A; format: biochemical; conditions: for IC50: concentration required for semi-maximal inhibition of ATPase; for % inhibition. complete NM2A: maximum value of inhibition of ATPase activity; for inhibition at 5 µM: read-out: % inhibition at 5 μM (or 10 μM if racemate) NM2A, 5 μM (10 μM if racemate); for inhibition at 5 µM / inhibition at 50 µM: ATPase activity; for inhibition at 50 µM: read-out: % inhibition at 50 μM (or 100 μM if racemate) NM2A, 50 μM (100 μM if racemate)
Text: as §1

[8] = molecular target: T1, isolated porcine cardiac ventricular myocardium (cardiac) (Sus scrofa, UniProt P79293); experiment: actomyosin steady state ATPase measurement, cardiac myosin; format: biochemical; conditions: for IC50: concentration required for semi-maximal inhibition of ATPase; for % inhibition. complete cardiac: maximum value of inhibition of ATPase activity; for inhibition at 5 µM: read-out: % inhibition at 5 μM (or 10 μM if racemate) cardiac, 5 μM (10 μM if racemate); for inhibition at 5 µM / inhibition at 50 µM: ATPase activity; for inhibition at 50 µM: read-out: % inhibition at 50 μM (or 100 μM if racemate) cardiac, 50 μM (100 μM if racemate)
T1 construct: isolated porcine cardiac ventricular myocardium (cardiac); from tissue; host or cells: porcine cardiac ventricle
T1 sequence (P79293 whole entry): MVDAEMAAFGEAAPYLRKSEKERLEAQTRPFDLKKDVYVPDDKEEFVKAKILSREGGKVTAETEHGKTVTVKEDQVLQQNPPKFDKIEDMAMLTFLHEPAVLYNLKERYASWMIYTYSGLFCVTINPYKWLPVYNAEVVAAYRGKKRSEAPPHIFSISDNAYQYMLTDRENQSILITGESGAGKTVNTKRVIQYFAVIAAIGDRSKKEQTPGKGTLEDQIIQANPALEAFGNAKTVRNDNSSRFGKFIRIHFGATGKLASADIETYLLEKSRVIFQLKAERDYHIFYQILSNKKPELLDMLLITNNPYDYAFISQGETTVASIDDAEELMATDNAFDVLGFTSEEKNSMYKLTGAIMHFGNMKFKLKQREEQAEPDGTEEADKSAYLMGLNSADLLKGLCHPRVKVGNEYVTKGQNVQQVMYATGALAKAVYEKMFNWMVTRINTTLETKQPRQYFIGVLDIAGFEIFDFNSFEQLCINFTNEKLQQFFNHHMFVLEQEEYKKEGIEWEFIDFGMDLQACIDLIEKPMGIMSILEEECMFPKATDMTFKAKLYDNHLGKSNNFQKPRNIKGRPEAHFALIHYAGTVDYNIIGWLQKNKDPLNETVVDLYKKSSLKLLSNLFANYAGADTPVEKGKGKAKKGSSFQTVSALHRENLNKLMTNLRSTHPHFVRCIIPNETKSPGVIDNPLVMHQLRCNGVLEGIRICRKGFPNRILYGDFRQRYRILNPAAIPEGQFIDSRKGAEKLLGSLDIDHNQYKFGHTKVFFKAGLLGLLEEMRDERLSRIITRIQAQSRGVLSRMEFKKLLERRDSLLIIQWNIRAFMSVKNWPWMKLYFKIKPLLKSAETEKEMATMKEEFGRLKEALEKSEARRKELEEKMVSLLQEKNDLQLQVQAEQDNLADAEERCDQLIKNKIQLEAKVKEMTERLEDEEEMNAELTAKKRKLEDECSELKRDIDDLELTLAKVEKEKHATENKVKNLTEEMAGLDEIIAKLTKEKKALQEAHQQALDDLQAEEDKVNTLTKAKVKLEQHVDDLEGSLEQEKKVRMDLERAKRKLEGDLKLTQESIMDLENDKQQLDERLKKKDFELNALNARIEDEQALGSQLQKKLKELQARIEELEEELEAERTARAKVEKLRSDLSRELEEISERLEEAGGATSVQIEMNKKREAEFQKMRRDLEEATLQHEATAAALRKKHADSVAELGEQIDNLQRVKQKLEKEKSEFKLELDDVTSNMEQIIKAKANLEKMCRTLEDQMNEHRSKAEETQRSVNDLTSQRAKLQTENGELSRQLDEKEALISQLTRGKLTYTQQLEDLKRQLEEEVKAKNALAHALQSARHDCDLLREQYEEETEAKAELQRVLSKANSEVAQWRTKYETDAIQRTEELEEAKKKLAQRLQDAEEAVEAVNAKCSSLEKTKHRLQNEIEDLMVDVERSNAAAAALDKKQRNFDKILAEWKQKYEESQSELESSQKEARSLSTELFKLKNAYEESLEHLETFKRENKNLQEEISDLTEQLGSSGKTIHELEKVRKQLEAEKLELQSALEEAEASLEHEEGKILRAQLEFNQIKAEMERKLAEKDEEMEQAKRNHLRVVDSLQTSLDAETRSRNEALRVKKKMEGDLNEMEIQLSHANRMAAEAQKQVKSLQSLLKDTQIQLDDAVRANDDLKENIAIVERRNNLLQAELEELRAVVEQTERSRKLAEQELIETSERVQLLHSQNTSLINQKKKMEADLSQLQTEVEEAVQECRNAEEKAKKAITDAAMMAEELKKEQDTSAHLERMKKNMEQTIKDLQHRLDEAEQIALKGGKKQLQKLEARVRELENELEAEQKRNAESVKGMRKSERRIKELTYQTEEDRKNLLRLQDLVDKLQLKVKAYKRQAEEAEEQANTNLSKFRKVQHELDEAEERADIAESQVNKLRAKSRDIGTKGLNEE
Text: as §1

SMILES | IC50 [1] | % inhibition. complete NM2C [1] | inhibition at 5 µM [1] | inhibition at 50 µM [1] | IC50 [2] | % inhibition at 5 μM (or 10 μM if racemate) Smooth [3] | % inhibition at 50 μM (or 100 μM if racemate) Smooth [3] | % inhibition. complete Smooth [3] | IC50 [5] | % inhibition. complete Dicty [5] | inhibition at 5 µM [5] | inhibition at 50 µM [5] | % inhibition at 5 μM (or 10 μM if racemate) Skeletal [6] | % inhibition at 50 μM (or 100 μM if racemate) Skeletal [6] | IC50 [6] | % inhibition. complete Skeletal [6] | inhibition at 5 µM [7] | IC50 [8] | % inhibition. complete cardiac [8] | inhibition at 5 µM [8] | further results
Cc1cc2c(s1)N=C1N(c3ccccc3)CCC1(O)C2=O (stereo not shown) [Compound 198, 9-Hydroxy-5-methyl-12-phenyl-4-thia-2,12-diazatricyclo[7.3.0.0^3,7]dodeca-1,3(7),5-trien-8-one] | 6.8 µM | 100% | 51% | 84% | 7.6 µM | 44% | 88% | 100% | 5 µM | 100% | 51% | 96% | 90% | 99% | 1 µM | 100% | 26% | 4 µM | 100% | 64% | IC50 ([4]; concentration required for semi-maximal inhibition of ATPase): 15.1 µM; % inhibition. complete NM2B ([4]; maximum value of inhibition of ATPase activity): 100%; inhibition at 5 µM ([4]; read-out: % inhibition at 5 μM (or 10 μM if racemate) NM2B, 5 μM (10 μM if racemate), ATPase activity): 24%; inhibition at 50 µM ([4]; read-out: % inhibition at 50 μM (or 100 μM if racemate) NM2B, 50 μM (100 μM if racemate), ATPase activity): 80%; IC50 [7]: 15 µM; % inhibition. complete NM2A [7]: 100%; inhibition at 50 µM [7]: 79%; Inhibition (%) cardiac ([8]; maximum inhibition, compounds in IC50 range 3-6 μM): 100%; inhibition at 50 µM [8]: 89%
Cc1cc2c(s1)N=C1N(c3cccs3)CC[C@@]1(O)C2=O [Compound 208, (9S)-9-Hydroxy-5-methyl-12-(thiophen-2-yl)-4-thia-2,12-diazatricyclo[7.3.0.0^3,7]dodeca-1,3(7),5-trien-8-one] | 1.7 µM | 69% | 54% | 65% | 7.8 µM | 26% | 60% | 66% | 3.6 µM | 95% | 55% | 89% | 87% | 93% | 0.36 µM | 95% | 37% |  |  |  | Inhibition (%) Dicty ([5]; maximum inhibition, compounds in IC50 range 1-11 μM): 95%; IC50 [7]: 7.2 µM; Inhibition (%) NM2A ([7]; maximum inhibition, compounds in IC50 range 5-10 μM): 89%; % inhibition. complete NM2A [7]: 89%; inhibition at 50 µM [7]: 78%
Cc1nsc2c1C(=O)C1(O)CCN(c3ccccc3)C1=N2 (stereo not shown) [Compound 206, 12-phenyl-9-Hydroxy-6-methyl-4-thia-2,5,12-triazatricyclo[7.3.0.0^3,7]dodeca-1,3(7),5-trien-8-one] |  |  |  |  | 9 µM | 9% | 21% | 24% |  |  |  |  | 26% | 78% | 14 µM | 100% | 9% | 10 µM | 47% | 16% | inhibition at 50 µM [8]: 39%
Cc1cc2c(s1)N=C1N(c3ccc(CO)cc3)CCC1(O)C2=O (stereo not shown) [Compound 227, 9-Hydroxy-12-[4-(hydroxymethyl)phenyl]-5-methyl-4-thia-2,12-diazatricyclo[7.3.0.0^3,7]dodeca-1,3(7),5-trien-8-one] | 2.8 µM | 84% | 52% | 80% | 4 µM | 54% | 92% | 99% | 5.1 µM | 100% | 47% | 96% | 82% | 96% | 0.83 µM | 97% |  | 0.76 µM | 90% | 77% | Inhibition (%) NM2C ([1]; maximum inhibition, compounds in IC50 range 1-5 μM): 84%; inhibition at 50 µM [8]: 89%
